Measured values: patent US4537893A, “Octahydrothiazolo[4,5-g]quinolines and use as prolactin secretion inhibitors” (Eli Lilly and Company, priority 1984, dated 1985)

Experiments:
[1] = test system: 6-hydroxydopamine-lesioned rats (nigroneostriatal-lesioned); assay: Turning behavior in 6-hydroxydopamine-lesioned rats (Table 2); type: in vivo, rat; details: for Average No. of turns per rat: first 15 minutes after end of latency period
Description: In this test, nigroneostriatal-lesioned rats are employed, as prepared by the procedure of Ungerstedt and Arbuthnott, Brain Res, 24, 485 (1970). A compound having dopamine agonist activity causes the rats to turn in circles contralateral to the side of the lesion. After a latency period, which varies from compound to compound, the number of turns is counted over a 15-minute period.

prolactin secretion = assay: Inhibition of prolactin secretion in reserpine-treated male rats (Table 1); type: in vivo, rat (Sprague-Dawley); details: 50 mcg/kg i.p., 1 h after treatment
Experimental: As previously stated, the drugs of this invention as represented by formulas I and III above are D-2 dopamine agonists.
Adult male rats of the Sprague-Dawley strain weighing about 200 g. were housed in an air-conditioned room with controlled lighting (lights on 6 a.m.-8 p.m.) and fed lab chow and water ad libitum. Each rat received an intraperitoneal injection of 2.0 mg. of reserpine in aqueous suspension 18 hours before administration of the test drug. The purpose of the reserpine was to keep the rat prolactin levels uniformly elevated. The compound was dissolved in 10 percent ethanol, and injected intraperitoneally at doses of 0.017, 0.03, 0.17 and 0.3μ moles/kg. The compound was administered at each dose level to a group of 10 rats, and a control group of 10 intact males received an equivalent amount of 10 percent ethanol. One hour after treatment, all rats were killed by decapitation, and 150 μl aliquots of serum were assayed for prolactin.
The difference between the prolactin level of the treated rats and prolactin level of the control rats, divided by the prolactin level of the control rats, gives the percent inhibition of prolactin secretion attributable to the given dose. Inhibition percentages are given in Tables 1 and 2 below for compounds according to I or III above respectively. […]

Question: How did the “% Rats exhibiting turning behaviour” value ([1]; dose 1000 mcg/kg) turn out when `CCCN1CCC[C@H]2Cc3nc(N4CCCC4)sc3C[C@@H]21` (racemic) [n-Pr, 1-pyrrolidinyl, FB, Trans-(±), Trans-(±)-2-(1-pyrrolidinyl)-5-n-propyl-4,4a,5,6,7,8,8a,9-octahydrothiazolo[4,5-g]quinoline] was run?
Answer: The value was 100%.

Question: And the “Average No. of turns per rat” value ([1]; dose 1000 mcg/kg)?
Answer: The value was 67 turns per rat.

Question: How did the “% Rats exhibiting turning behaviour” value ([1]; dose 1000 mcg/kg) turn out when `CCCN1CCC[C@H]2Cc3nc(Br)sc3C[C@@H]21` (racemic) [n-Pr, Br, 2HCl, Trans-(±), Trans-(±)-2-bromo-5-n-propyl-4,4a,5,6,7,8,8a,9-octahydrothiazolo[4,5-g]quinoline] was run?
Answer: The value was 100%.

Question: What about the “Average No. of turns per rat” value ([1]; dose 1000 mcg/kg) of the same molecule?
Answer: Its value is 42 turns per rat.

Question: Which “% Rats exhibiting turning behaviour” value ([1]; dose 20 mcg/kg) does the source give for `CCCN1CCC[C@H]2Cc3ncsc3C[C@@H]21.Cl.Cl` (racemic) [n-Pr, H, 2HCl, trans-(±), trans-(±)-5-n-propyl-4,4a,5,6,7,8,8a,9-octahydrothiazolo[4,5-g]quinoline dihydrochloride] here?
Answer: Its value is 25%.

Question: And the “Average No. of turns per rat” value ([1]; dose 20 mcg/kg)?
Answer: Its value is 16 turns per rat.

Question: What about the “% Rats exhibiting turning behaviour” value ([1]; dose 100 mcg/kg) of the same molecule?
Answer: The value was 100%.

Question: And the “Average No. of turns per rat” value ([1]; dose 100 mcg/kg)?
Answer: The value was 44 turns per rat.

Question: And the “% Rats exhibiting turning behaviour” value ([1]; dose 1000 mcg/kg)?
Answer: The value was 100%.

Question: What about the “Average No. of turns per rat” value ([1]; dose 1000 mcg/kg) of the same molecule?
Answer: The value was 100 turns per rat.

Question: For `CCC[N+]1(C)CCCC2Cc3scnc3CC21.I.[I-]` (racemic) [n-Pr, H, HI methiodide, trans-(±), trans-(±)-5-n-propyl-4,4a,5,6,7,8,8a,9-octahydrothiazolo[4,5-g]quinolinium methiodide hydroiodide], which “Percent Inhibition of Prolactin Secretion” value (prolactin secretion) is on record?
Answer: The value was 30%.

Question: For `CCCN1CCC[C@H]2Cc3nc(N(C)C)sc3C[C@@H]21` (racemic) [n-Pr, N(CH3)2, 2HCl, trans (±), trans-(±)-2-dimethylamino-5-n-propyl-4,4a,5,6,7,8,8a,9-octahydrothiazolo[4,5-g]quinoline], which “% Rats exhibiting turning behaviour” value ([1]; dose 1000 mcg/kg) is on record?
Answer: The value was 100%.

Question: And the “Average No. of turns per rat” value ([1]; dose 1000 mcg/kg)?
Answer: The value was 62 turns per rat.

Question: Which results are given for `Br.Br.CCCN1CCC[C@H]2Cc3nc(N)sc3C[C@@H]21` (racemic) [n-Pr, NH2, 2HBr, trans (±), trans-(±)-2-amino-5-n-propyl-4,4a,5,6,7,8,8a,9-octahydrothiazolo[4,5-g]quinoline dihydrobromide]?
Answer: % Rats exhibiting turning behaviour ([1]; dose 20 mcg/kg): 0%; % Rats exhibiting turning behaviour ([1]; dose 100 mcg/kg): 78%; Average No. of turns per rat ([1]; dose 100 mcg/kg): 51 turns per rat

Question: How did the “% Rats exhibiting turning behaviour” value ([1]; dose 20 mcg/kg) turn out when `CCCN1CCC[C@H]2Cc3nc(NC)sc3C[C@@H]21.Cl.Cl` (racemic) [n-Pr, NHCH3, 2HCl, trans (±), trans-(±)-2-methylamino-5-n-propyl-4,4a,5,6,7,8,8a,9-octahydrothiazolo[4,5-g]-quinoline dihydrochloride] was run?
Answer: Its value is 75%.

Question: What about the “Average No. of turns per rat” value ([1]; dose 20 mcg/kg) of the same molecule?
Answer: Its value is 27 turns per rat.

Question: What about the “% Rats exhibiting turning behaviour” value ([1]; dose 100 mcg/kg) of the same molecule?
Answer: Its value is 100%.

Question: What about the “Average No. of turns per rat” value ([1]; dose 100 mcg/kg) of the same molecule?
Answer: The value was 80 turns per rat.

Question: What about the “% Rats exhibiting turning behaviour” value ([1]; dose 1000 mcg/kg) of the same molecule?
Answer: The value was 100%.

Question: And the “Average No. of turns per rat” value ([1]; dose 1000 mcg/kg)?
Answer: Its value is 100 turns per rat.

Question: Which “% Rats exhibiting turning behaviour” value ([1]; dose 1000 mcg/kg) does the source give for `CCCN1CCC[C@H]2Cc3nc(NC(C)=O)sc3C[C@@H]21` (racemic) [n-Pr, NHCOCH3, FB, trans-(±), Trans-(±)-2-acetylamino-5-n-propyl-4,4a,5,6,7,8,8a,9-octahydrothiazolo[4,5-g]quinoline] here?
Answer: The value was 100%.

Question: What about the “Average No. of turns per rat” value ([1]; dose 1000 mcg/kg) of the same molecule?
Answer: Its value is 91 turns per rat.

Question: `CCCN1CCC[C@@H]2Cc3nc(N)sc3C[C@H]21` [n-Pr, NH2, 2HCl, trans-(-), 4aR,8aR-2-amino-5-n-propyl-4,4a,5,6,7,8,8a,9-octahydrothiazolo[4,5-g]quinoline] was tested. Which “% Rats exhibiting turning behaviour” value ([1]; dose 20 mcg/kg) did it give?
Answer: The value was 100%.

Question: And the “Average No. of turns per rat” value ([1]; dose 20 mcg/kg)?
Answer: The value was 37 turns per rat.

Question: And the “% Rats exhibiting turning behaviour” value ([1]; dose 100 mcg/kg)?
Answer: Its value is 80%.

Question: And the “Average No. of turns per rat” value ([1]; dose 100 mcg/kg)?
Answer: The value was 102 turns per rat.

Question: And the “% Rats exhibiting turning behaviour” value ([1]; dose 1000 mcg/kg)?
Answer: The value was 100%.

Question: What about the “Average No. of turns per rat” value ([1]; dose 1000 mcg/kg) of the same molecule?
Answer: Its value is 109 turns per rat.
